Data set [1] can be described thus: Part D multiple-dose coadministration of DUR, SUL and IMI-CIL, plasma PK in healthy subjects. The settings on record: for AUC / Cmax / Tmax: human, in vivo; for AUC: AUC0–tau. As for the experimental part:
(§1) The blank control matrix was made up of human plasma (BioreclamationIVT) diluted 1:1 with SigmaFast (reconstituted protease inhibitor cocktail tablet [product S8820; Sigma-Aldrich, St. Louis, MO] in 10 ml of water) for preparation of calibration standards and QC samples. […] A 100-μl aliquot of the supernatant was transferred to 96-well plates. Samples were diluted further with 400 μl of water, and 5 μl of sample was injected into the LC-MS/MS system for analysis. […] The LLOQ for all analytes was 5 ng/ml.
(§2) AUC was calculated using the log-linear trapezoidal rule.
(§3) Pharmacokinetic parameters were summarized at each assessment time point using the mean ± standard deviation (SD), the percent coefficient of variation (CV), median, minimum, and maximum. Single-ascending-dose study data were assessed for dose proportionality using Cmax and AUC, and accumulation ratios was determined using repeat-dose cohorts. […] Noncompartmental analysis of PK parameters was performed using Phoenix WinNonlin (v6.4) software to determine PK parameters.

Data set [2] can be described thus: Part C single-dose drug-drug interaction plasma PK in healthy subjects. The settings on record: for half-life / AUC(0-t) / clearance / Cmax / Vd: human, in vivo; for clearance: CL; for Vd: Vss. As for the experimental part: as §1, §2, §3
Data set [3] can be described thus: Urine PK (urinary excretion, renal clearance) in healthy subjects. The settings on record: for CL renal: human, CLr.
The nature of data set [4]: clinical. The settings on record: human, 0.5 g.
For data set [5] the following is noted: cited from earlier work.
The mark [6] stands for this setting: DUR 1 g + SUL 1 g + IMI-CIL 0.5 g q6h, day 1.
[7] abbreviates: DUR 1 g + SUL 1 g + IMI-CIL 0.5 g q6h, day 11.
Setting [8] is: DUR 1 g + SUL 1 g + IMI-CIL 0.5 g q6h, day 1, median, n=10.
Setting [9] is: DUR 1 g + SUL 1 g + IMI-CIL 0.5 g q6h, day 11, median.
The mark [10] stands for this setting: 1 g, part C cohort 13, SUL 1 g alone, day 1.
Setting [11] is: AUC0–24, part C cohort 14, DUR 1 g + IMI-CIL 0.5 g + SUL 1 g, day 8.
[12] abbreviates: part C cohort 13, DUR 1 g + SUL 1 g coadministered, day 5.
The mark [13] stands for this setting: part C cohort 14, DUR 1 g + IMI-CIL 0.5 g + SUL 1 g, day 8.
The mark [14] stands for this setting: part C cohort 14, SUL 1 g + IMI-CIL 0.5 g, day 8.
[15] abbreviates: part C cohort 14, Day 8, placebo subjects (no DUR), n=2.
The mark [16] stands for this setting: part D cohort 15, Day 1, DUR + SUL + IMI-CIL q6h, mean, n=10.
[17] abbreviates: part D cohort 15, Day 11, DUR + SUL + IMI-CIL q6h, mean, n=10.
Setting [18] is: part C cohort 14, IMI-CIL 0.5 g alone, day 3.
Where [19] appears, read: part C cohort 14, DUR 1 g + IMI-CIL 0.5 g, day 5.

Broadly, the AUC is concentration integrated over time. As usually defined, the Cmax is the peak of the concentration-time curve. As usually defined, the Tmax is the time from dosing to the highest level. Broadly, the half-life is how long it takes for the measured level to halve. Read a low half-life as fast loss. By AUC(0-t) is commonly meant the area under the concentration-time curve up to a stated or last time point. A word on the clearance: it is a measure of how efficiently the substance is removed, as volume per time. As usually defined, the Vd is the apparent volume that relates the amount in the body to the concentration in plasma or blood.

On to `CC1(C)[C@H](C(=O)O)N2C(=O)C[C@H]2S1(=O)=O` [SUL, Sulbactam], for which the exposure (AUC) amounted to 76700 ± 5800 ng·h/mL in data set [1] (setting [6]) and 67900 ± 7600 ng·h/mL in data set [1] (setting [7]). The Cmax was 23900 ± 1300 ng/mL in data set [1] (setting [6]); 22400 ± 6100 ng/mL in data set [1] (setting [7]); 20700 ± 700 ng/mL in data set [2] (setting [10]); 22000 ± 2700 ng/mL in data set [2] (setting [12]); 24000 ± 2000 ng/mL in data set [2] (setting [14]). Also, the time to peak (Tmax) in data set [1] (setting [8]) came to 2.7 h; in data set [1] (setting [9]), 2.6 h. The same molecule gave a half-life in data set [2] (1 g) of 1.3 ± 0.1 h. The area under the curve AUC(0-t) in data set [2] (1 g, AUC0–24, part C cohort 13, SUL 1 g alone, day 1) was determined as 68500 ± 4700 ng·h/mL; in data set [2] (AUC0–24, part C cohort 13, DUR 1 g + SUL 1 g coadministered, day 5) it was 73000 ± 6200 ng·h/mL; in data set [2] (setting [11]), 80600 ± 21200 ng·h/mL; in data set [2] (AUC0–24, part C cohort 14, SUL 1 g + IMI-CIL 0.5 g, day 8), 81700 ± 5200 ng·h/mL. Also, the clearance was 243 mL/min in data set [2] (setting [10]), 230 mL/min in data set [2] (setting [12]), 217 mL/min in data set [2] (setting [13]) and 205 mL/min in data set [2] (setting [14]). Besides, the Vd in data set [2] (setting [10]) is 18 ± 1.6 L; in data set [2] (setting [12]) it was 18.1 ± 1.7 L; in data set [2] (setting [13]), 15.2 ± 2.7 L; in data set [2] (setting [14]), 15.4 ± 1.5 L. The t1/2 in data set [2] (setting [12]) and in data set [2] (setting [14]) was 1.3 ± 0.1 h each time.
For `CC1(C)C[C@@H]1C(=O)N/C(=C\CCCCSC[C@H](N)C(=O)O)C(=O)O` [CIL, cilastatin], the CL renal in data set [3] (in vivo, part C cohort 14, Day 8, placebo subjects (no DUR), n=2) was 206 mL/min; in data set [3] (in vivo, part D cohort 15, Day 11, DUR + SUL + IMI-CIL q6h, mean) it was 183 mL/min; in data set [4] (in vivo) it was 133 mL/min. In addition, the figures for the Ae in data set [3] (setting [15]), in data set [3] (setting [16]) and in data set [3] (setting [17]) were 601.795 (46.820) mg, 3535.03 mg and 424.168 mg, respectively. Besides, the Fe is recorded as 120.359 (9.364) % in data set [3] (setting [15]), 88.376% in data set [3] (setting [16]) and 84.834% in data set [3] (setting [17]). The Accum. index in data set [1] (setting [7]) was determined as 1.1 ± 0.04. In data set [1] (day 11 vs day 1), the accumulation index entry is “approximately 1”. The AUC came to 45600 ± 7000 ng·h/mL in data set [1] (setting [6]) and 39400 ± 7200 ng·h/mL in data set [1] (setting [7]). Moreover, the Cmax in data set [1] (setting [6]) was determined as 38600 ± 6000 ng/mL; in data set [1] (setting [7]), 38000 ± 5600 ng/mL; in data set [2] (setting [13]), 40700 ± 4900 ng/mL; in data set [2] (setting [19]) it was 44000 ± 6100 ng/mL; in data set [2] (setting [18]), 46000 ± 8300 ng/mL. In addition, the time of peak concentration (Tmax) in data set [1] (setting [8]) and in data set [1] (setting [9]) was 0.5 h in each case. The half-life in data set [2] is 1.2 ± 0.2 h. Also, the exposure AUC(0-t) in data set [2] (setting [11]) is 46900 ± 6600 ng·h/mL; in data set [2] (AUC0–24, part C cohort 14, DUR 1 g + IMI-CIL 0.5 g, day 5) it was 47100 ± 7200 ng·h/mL; in data set [2] (AUC0–24, part C cohort 14, IMI-CIL 0.5 g alone, day 3), 49600 ± 9800 ng·h/mL. The clearance in data set [2] (setting [18]) is 173 mL/min. The distribution volume (Vd) in data set [2] (setting [13]) came out at 10.4 ± 0.9 L; in data set [2] (setting [19]) it was 9.9 ± 1.2 L; in data set [2] (setting [18]) it was 9.6 ± 1.4 L. The CL in data set [2] (setting [13]) was determined as 10.9 ± 1.6 L/h; in data set [2] (setting [19]), 10.8 ± 1.8 L/h. Besides, the t1/2 in data set [2] (setting [13]) and in data set [2] (setting [19]) was 1.2 ± 0.2 h in each case.
Regarding colistin, in data set [5] (patients treated with colistin), the “nephrotoxicity, patients affected” value was at least 40%. Besides, in data set [5] (patients with hospital-acquired or ventilator-associated pneumonia treated with colistin-based antibiotic regimens), the mortality rate result is “approximately 40%”.
Take `C[C@@H](O)[C@H]1C(=O)N2C(C(=O)O)=C(SCCN=CN)C[C@H]12` [IMI, imipenem, reference compound]: the CL renal in data set [3] (urine, intravenous, part C cohort 14, Day 8, placebo subjects (no DUR), n=2) is 70.4 mL/min; in data set [3] (urine, intravenous, part D cohort 15, Day 11, DUR + SUL + IMI-CIL q6h, mean), 136 mL/min; in data set [4] (urine, intravenous), 102 mL/min. The Ae is reported as 183.832 (56.842) mg in data set [3] (setting [15]), 1407.051 mg in data set [3] (setting [16]) and 271.71 mg in data set [3] (setting [17]). Further, the Fe was 36.766 (11.368) % in data set [3] (setting [15]), 35.1762% in data set [3] (setting [16]) and 54.343% in data set [3] (setting [17]). The molecule further yielded an AUC(0-t) in data set [2] (AUC0–24) of 43700 ± 9200 ng·h/mL. This molecule had a clearance in data set [2] of 197 mL/min. Further, in data set [2], the highest level (Cmax) was 34400 ± 5300 ng/mL. Also, in data set [2] (t1/2), the half-life is 1.2 ± 0.1 h.

The values above are taken from PMC7318034, “Safety, Pharmacokinetics, and Drug-Drug Interaction Potential of Intravenous Durlobactam, a β-Lactamase Inhibitor, in Healthy Subjects” (Antimicrobial Agents and Chemotherapy, 2020).
